Experimental data from US20240190866A1, “POLYHYDROXYLATED INDOLIZIDINE AND PYRROLIZIDINE DERIVATIVES AND USES THEREOF” (Academia Sinica, priority 2021, published 2024).
Where two headings read alike, the source gives them in different places.

Legend:
[1] = molecular target: human lysosomal α-mannosidase (α-hLM) (Homo sapiens (Human), UniProt O00754); test: α-Mannosidase (α-hLM) activity assay, 4-MU-α-D-mannopyranoside substrate; assay type: biochemical; settings: pH 4.6, 37° C., 1 h
Protocol: (§1) Compounds were diluted to give the final concentration of 100 μM and mixed with 4-MU-α-D-mannopyranoside as substrate and human Golgi α-mannosidase II in phosphate buffer (0.1 M Sodium phosphate dibasic, pH 7.0) or human lysosomal α-mannosidase in citric phosphate buffer (0.1 M Sodium phosphate monobasic monohydrate, 0.5 mM citric acid monohydrate, pH 4.6). The assay was carried out at 37° C. for a certain time (1 h for α-hLM, 2 h for α-hGMII). Stop solution (0.5 M K2CO3(aq), pH 10.8) was then added to the reactions and the fluorescence was determined at 355 nm excitation and 460 nm emission (SpectraMax M5, Molecular Devices). Inhibition was performed as relative enzyme activity to control. The active compounds were selected for libraries preparation and further tested at lower concentration to determine their IC50 values. The assays performed in 384-wells of the microtiter plates.

[2] = molecular target: human Golgi α-mannosidase II (α-hGMII) (Homo sapiens (Human), UniProt Q16706); test: Golgi α-mannosidase II (α-hGMII) activity assay, 4-MU-α-D-mannopyranoside substrate; assay type: biochemical; settings: for IC50: pH 7.0, 37° C., 2 h; for Selectivity Index (SI): selectivity toward α-hGMII than α-hLM
Sequence of human Golgi α-mannosidase II (α-hGMII) (Q16706 whole entry): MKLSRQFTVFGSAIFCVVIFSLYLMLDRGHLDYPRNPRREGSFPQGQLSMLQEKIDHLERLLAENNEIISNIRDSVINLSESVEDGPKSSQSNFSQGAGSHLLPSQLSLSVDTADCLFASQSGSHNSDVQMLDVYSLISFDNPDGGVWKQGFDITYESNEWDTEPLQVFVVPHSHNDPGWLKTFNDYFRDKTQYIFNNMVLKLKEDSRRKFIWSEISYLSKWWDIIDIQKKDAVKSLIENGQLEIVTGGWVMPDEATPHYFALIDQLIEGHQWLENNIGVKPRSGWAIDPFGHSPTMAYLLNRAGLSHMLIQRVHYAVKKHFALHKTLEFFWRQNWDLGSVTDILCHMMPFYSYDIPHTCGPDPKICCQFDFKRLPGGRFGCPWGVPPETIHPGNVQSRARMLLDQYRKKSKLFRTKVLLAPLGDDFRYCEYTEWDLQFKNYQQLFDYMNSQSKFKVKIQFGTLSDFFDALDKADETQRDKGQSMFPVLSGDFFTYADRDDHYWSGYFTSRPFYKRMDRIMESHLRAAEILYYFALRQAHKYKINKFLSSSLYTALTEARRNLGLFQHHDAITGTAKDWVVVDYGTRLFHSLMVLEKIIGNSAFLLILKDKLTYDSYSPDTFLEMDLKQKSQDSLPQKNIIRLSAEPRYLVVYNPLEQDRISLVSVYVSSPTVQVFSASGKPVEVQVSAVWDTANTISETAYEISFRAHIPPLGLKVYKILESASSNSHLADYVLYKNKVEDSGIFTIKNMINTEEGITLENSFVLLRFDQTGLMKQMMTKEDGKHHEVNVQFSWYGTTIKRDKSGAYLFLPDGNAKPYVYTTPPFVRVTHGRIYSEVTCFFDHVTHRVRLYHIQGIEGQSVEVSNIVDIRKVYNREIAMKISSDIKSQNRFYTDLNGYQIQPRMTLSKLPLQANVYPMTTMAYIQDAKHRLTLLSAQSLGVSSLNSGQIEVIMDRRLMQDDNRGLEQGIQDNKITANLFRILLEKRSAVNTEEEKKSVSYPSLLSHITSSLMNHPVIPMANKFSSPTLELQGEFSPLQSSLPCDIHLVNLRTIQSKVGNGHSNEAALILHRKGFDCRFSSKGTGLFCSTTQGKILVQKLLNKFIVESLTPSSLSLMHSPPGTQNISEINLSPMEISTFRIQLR
Protocol: as §1

MDA-MB-231 cells = test: Anti-proliferative activity assay (CellTiter-Glo); assay type: cell-based, human
Protocol: (§2) Human liver cancer HepG2 cells and Huh7 cells, breast cancer MDA-MB-231 cells, pancreatic cancer PANC-1 cells, and non-small cell lung (NSCL) cancer H1975 cells were maintained in Dulbecco's Modified Eagle Medium supplemented containing 10% fetal bovine serum (FBS), 100 units/ml penicillin and […] streptomycin in 37° C. incubator with 5% CO2.
(§3) Anti-proliferative activity of HepG2, Huh7 or PANC-1 cells was determined by 3-(4,5-dimethylthiazol-2-yl)-2,5-diphenyltetrazolium bromide (MTT) assay, while that of H1975 or MDA-MB-231 cells was determined by luminescent assay with the aid of commercial kit CellTiter-Glo® (Promega).
(§4) For H1975 and MDA-MB-231, cells were respectively seeded at 5×10^3 cells/well in 96-well plates and maintained for 14-16 hours. Cells were treated with dimethylsulfoxide (DMSO) or test compounds in varied concentrations for 48 h. Cell viability was monitored using Cell-TiterGlo (Promega), a kit that measures the quantity of ATP present in the cell culture, an indicator of metabolically active cells. The IC50 values of death cell lines were calculated accordingly.

Huh7 xenograft tumors = test: Human hepatocarcinoma (HCC) Huh7 cells xenograft animal model; assay type: in vivo, NOD-SCID mice; settings: 30 mg/kg i.p., twice a week
Description: A total of 34 NOD-SCID mice to (5- to 6-week-old) were maintained in micro-isolator units on a standard laboratory diet. Animals were housed under humidity- and temperature-controlled conditions and the light/dark cycle was set at 12-hour intervals, maintained under specified and opportunistic pathogen-free conditions. Mice were quarantined at least 1 week before experimental manipulation
HCC xenografts were established in 5-6 weeks old NOD-SCID mice by subcutaneous inoculation of about 5×10^6 Huh7 cells suspended in 50 μL PBS+50 μL, Matrigel (Corning, 394230) in the left and right flanks of each mouse. After one week of inoculation, tumors were palpable and the mice were assigned randomly to 1 of 4 treatment groups. Group 1 (vehicle control group, n=6) mice only received a vehicle solution containing Kolliphor EL (Sigma Aldrich, C5135), 99.9% ethanol and water in a ratio of 1:1:6. Groups 2, 3, 4 and 5 mice were intraperitoneally injected with the test compound (e.g., compound ACK900, ACK901, or ACK902) (30 mg/kg, ip, n=7/group) or sorafenib (30 mg/kg, ip, n=6/group), twice per week for 25 days. The tumor volume was calculated by the formula of a ratioinal ellipsoid: [0.5236×short axis) m1^2×(long axis)m^2], and the tumor volume was measured twice per week. All mice were sacrificed at 27 days after the treatment started. Tumor tissues were isolated, photographed and weighted. […]

Huh7 cells [3] = settings: Data from Int. J. Med. Sci. 2017, 14, 523; cited from earlier work
HepG2 cells [4] = settings: Data from Int. J. Med. Sci. 2017, 14, 523; cited from earlier work
[5] = Serum biochemistry assay in Huh7 xenograft mice; assay type: in vivo, NOD-SCID mice; settings: 30 mg/kg i.p., twice a week; for ALT / AST / BUN / CRE / TBIL: serum
Protocol: All blood specimens were collected in tubes and were left at 25° C. for 30 min to clot and centrifuged for 10 min at 1200 g. The concentrations of the following biochemical serum analytes collected were measured with FUJI DRI-CHEM 500i analyzer (FUJIFILM Corp., Tokyo, Japan) using the manufacturer's reagents and according to the manufacturer's instructions: Alanine Aminotransferase ALT), Aspartate Aminotransferase (AST), Blood Urea Nitrogen (BUN), Creatinine (CRE) and Total Bilirubin (TBIL).
HCC xenografts were established in 5-6 weeks old NOD-SCID mice by subcutaneous inoculation of about 5×10^6 Huh7 cells suspended in 50 μL PBS+50 μL, Matrigel (Corning, 394230) in the left and right flanks of each mouse. After one week of inoculation, tumors were palpable and the mice were assigned randomly to 1 of 4 treatment groups. Group 1 (vehicle control group, n=6) mice only received a vehicle solution containing Kolliphor EL (Sigma Aldrich, C5135), 99.9% ethanol and water in a ratio of 1:1:6. Groups 2, 3, 4 and 5 mice were intraperitoneally injected with the test compound (e.g., compound ACK900, ACK901, or ACK902) (30 mg/kg, ip, n=7/group) or sorafenib (30 mg/kg, ip, n=6/group), twice per week for 25 days. The tumor volume was calculated by the formula of a ratioinal ellipsoid: [0.5236×short axis) m1^2×(long axis)m^2], and the tumor volume was measured twice per week. All mice were sacrificed at 27 days after the treatment started. Tumor tissues were isolated, photographed and weighted.
In vivo tumor growth inhibition studies in human Huh7 xenograft rodents were performed in accordance with procedures as described in the “Material and Method” section. Xenograft tumors were generated by implanting Huh7 cells (5×10^6) subcutaneously into the left and right flanks of each NOD-SCID mouse. Starting on the 7th day after the inoculation of Huh7 cells, the mice were injected with ACK900, ACK901, ACK902 or sorafenib intraperitoneally (i.p.) at a dose of 30 mg/kg and twice a week for 34 days.

PANC-1 cells [6] = test: Transwell migration assay; assay type: cell-based, human; settings: PANC-1, transwell, 18 hours
Protocol: (§5) Chemotaxis experiments with human HepG2Huh7, or PANC-1 cells were assayed by using transwells (Millipore). The cells to be analyzed (5×10^4 cells/well) were seeded in the upper chambers of the 24-well plate in 400 μL serum-free medium. FBS (10%) was used as the chemoattractant with or without different concentrations of the test compound (e.g., ACK900, ACK901, ACK902) in the lower chamber, and the plate was incubated under standard conditions. After incubation for 18 hours, the media in the upper chambers were aspirated and washed with phosphate-buffered saline (PBS) twice. Both non-migrated and migrated cells were fixed with 4% paraformaldehyde (PFA) for 30 minutes at room temperature, stained with 2% crystal violet solution. The non-invading cells were removed from the upper surface of the insert membrane with a cotton swab. The images were taken using an imaging reader (Cytation 5, BioTek, VT, U.S.A.) and analyzed using NIH ImageJ software. Percent in the results represent percent of initial number of cells in the migrating and nonmigrating Cell fractions.

Huh7 cells [7] = test: Transwell migration assay; assay type: cell-based, human; settings: 18 hours
Protocol: as §5

PANC-1 cells [8] = test: Transwell invasion assay; assay type: cell-based, human; settings: PANC-1, transwell
Protocol: as §5

Huh7 cells [9] = test: Transwell invasion assay; assay type: cell-based, human
Protocol: as §5

H1975 cells = test: Anti-proliferative activity assay (CellTiter-Glo); assay type: cell-based, human; settings: 48 h
Protocol: as §2, §3, §4

PANC-1 cells [10] = test: Anti-proliferative activity assay (MTT); assay type: cell-based, human; settings: 72 h
Protocol: as §2, §3
(§6) Cancer cells including HepG2, Huh7 and PANC-1 cells were respectively seeded at 10^4, 4×10^3, and 5×10^3 cells/well in 96-well plates and maintained for 14-16 hours. Cells were treated with dimethylsulfoxide (DMSO) or test compounds in varied concentrations for 72 h. Cells were then washed with PBS twice, added a medium containing 3-(4,5-dimethylthiazol-2-yl)-2,5-diphenyltetrazolium bromide (MTT) at a final concentration of 0.5 mg/mL, and incubated for 4 h at 37° C. in a humidified incubator containing 5% CO2 in air. Cells having functional succinate dehydrogenase of mithchondria would convert MTT to formazan. Then, the medium was replaced with 100 μL of DMSO for 30 min at room temperature, and the 96-well plate was read by an ELISA reader at 550 nm to get the absorbance density values. The IC50 values of death cell lines were calculated accordingly.

Huh7 cells [11] = test: Anti-proliferative activity assay (MTT); assay type: cell-based, human; settings: 72 h
Protocol: as §2, §3, §6

HepG2 cells [12] = test: Anti-proliferative activity assay (MTT); assay type: cell-based, human; settings: 72 h
Protocol: as §2, §3, §6

[13] = tested on: all cancer cell lines (HepG2, Huh7, PANC-1, H1975, MDA-MB-231); test: Anti-proliferative activity, pooled statement over all cancer cell lines; assay type: cell-based, human; settings: read-out: half maximum inhibitory concentration (IC50), range in all cancer cell lines
Protocol: as §3, §6, §4

Sequence of human lysosomal α-mannosidase (α-hLM) (O00754 50-1011): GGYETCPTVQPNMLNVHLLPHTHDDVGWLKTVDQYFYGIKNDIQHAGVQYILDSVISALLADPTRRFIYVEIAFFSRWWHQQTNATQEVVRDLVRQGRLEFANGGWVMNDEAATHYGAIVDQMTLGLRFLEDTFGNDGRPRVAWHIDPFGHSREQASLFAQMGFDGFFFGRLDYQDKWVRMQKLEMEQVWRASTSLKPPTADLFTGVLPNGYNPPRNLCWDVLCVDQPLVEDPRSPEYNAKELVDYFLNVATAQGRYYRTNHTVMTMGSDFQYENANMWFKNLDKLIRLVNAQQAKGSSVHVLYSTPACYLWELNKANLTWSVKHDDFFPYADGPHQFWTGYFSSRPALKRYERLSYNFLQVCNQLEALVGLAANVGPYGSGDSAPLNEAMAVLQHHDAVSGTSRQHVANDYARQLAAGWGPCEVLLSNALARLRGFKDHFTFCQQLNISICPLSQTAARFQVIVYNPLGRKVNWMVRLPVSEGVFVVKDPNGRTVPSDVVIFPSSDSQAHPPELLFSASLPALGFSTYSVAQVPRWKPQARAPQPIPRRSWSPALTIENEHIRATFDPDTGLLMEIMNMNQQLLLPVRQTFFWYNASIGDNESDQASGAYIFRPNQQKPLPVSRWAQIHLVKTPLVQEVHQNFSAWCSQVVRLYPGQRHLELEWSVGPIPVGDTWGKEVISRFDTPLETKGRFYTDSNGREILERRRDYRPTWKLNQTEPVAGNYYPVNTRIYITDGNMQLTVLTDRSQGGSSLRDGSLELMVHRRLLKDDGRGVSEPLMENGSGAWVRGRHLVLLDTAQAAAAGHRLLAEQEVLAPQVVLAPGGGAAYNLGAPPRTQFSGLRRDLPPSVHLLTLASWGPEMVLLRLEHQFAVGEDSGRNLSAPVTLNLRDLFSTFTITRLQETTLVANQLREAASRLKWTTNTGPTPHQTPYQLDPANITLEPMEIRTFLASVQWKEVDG

| Structure (SMILES) | IC50 [1] [nM] | IC50 [2] [nM] | Selectivity Index (SI) [2] | ALT [5] [U/L] | AST [5] [U/L] | BUN [5] [mg/dL] | CRE [5] [mg/dL] | TBIL [5] [mg/dL] | also measured |
| --- | --- | --- | --- | --- | --- | --- | --- | --- | --- |
| O[C@@H]1[C@H](O)[C@@H](CNC(=S)Nc2ccccc2)N2CCC[C@@H](O)[C@H]12 [ACK905] | 1500 | 1300 | 1.1 |  |  |  |  |  |  |
| O[C@H]1[C@H]2[C@H](O)CCCN2C[C@H]1O [Swainsonine, swainsonine, reference compound] |  | 40 | 2 |  |  |  |  |  |  |
| COc1cccc2c1C(=O)c1c(O)c3c(c(O)c1C2=O)C[C@@](O)(C(=O)CO)C[C@@H]3O[C@H]1C[C@H](N)[C@H](O)[C@H](C)O1 [Doxorubicin, doxorubicin, reference compound] |  |  |  |  |  |  |  |  | IC50 (MDA-MB-231 cells; Homo sapiens, MDA-MB-231, 48 h): 1300 to 3000 nM |
| O=C(NC[C@@H]1[C@@H](O)[C@@H](O)[C@H]2[C@H](O)CCCN21)c1ccc(-c2ccccc2)cc1 [ACK903] | 650 | 190 | 3.4 |  |  |  |  |  |  |
| CNC(=O)c1cc(Oc2ccc(NC(=O)Nc3ccc(Cl)c(C(F)(F)F)c3)cc2)ccn1 [Sorafenib, sorafenib, reference compound] |  |  |  | 61.33 ± 54.45 | 135.33 ± 90.76 | 23 ± 2.53 | 0.35 ± 0.19 | 0.73 ± 0.32 | signs of harm or decreased body weight (Huh7 xenograft tumors): none of the mice injected with ACK900-ACK902 or sorafenib exhibited signs of harm or decreased body weight; tumor volume vs control (Huh7 xenograft tumors; P<0.05): Significant reduction; IC50 (Huh7 cells [3]): 5.97 µM; IC50 (HepG2 cells [4]): 7.42 µM; serious side effects including hepatoxicity and nephrotoxicity [5]: no serious side effects including hepatoxicity and nephrotoxicity were observed |
| CCC[C@H]1CC[C@H](c2ccc(C(=O)NC[C@@H]3[C@@H](O)[C@@H](O)[C@H]4[C@H](O)CCCN43)cc2)CC1 [ACK902] | 6800 | 1600 | 4.3 | 64.42 ± 57.49 | 250 ± 182.44 | 23.87 ± 4.30 | 0.43 ± 0.11 | 0.9 ± 0.56 | migratory capability (PANC-1 cells [6]): remarkably decreased; migratory capability (Huh7 cells [7]): remarkably decreased; invasive capability (PANC-1 cells [8]): remarkably decreased; invasive capability (Huh7 cells [9]): remarkably decreased; IC50 (MDA-MB-231 cells; 48 h): 9900 nM; IC50 (H1975 cells): 11.5 µM; IC50 (PANC-1 cells [10]): 1600 nM; IC50 (Huh7 cells [11]): 3700 nM; IC50 (HepG2 cells [12]): 14.5 µM; IC50 [13]: 0.3 to 19.1 µM |
| COc1ccc(NC(=S)NC[C@@H]2[C@@H](O)[C@@H](O)[C@H]3[C@H](O)CCCN32)cc1 [ACK904] | 950 | 800 | 1.2 |  |  |  |  |  |  |
| CCCCCC[C@H]1CC[C@H](c2ccc(NC(=S)NC[C@@H]3[C@@H](O)[C@@H](O)[C@H]4[C@H](O)CCCN43)cc2)CC1 [ACK901] | 21500 | 1000 |  | 74.85 ± 82.13 | 173.85 ± 95.67 | 21.87 ± 3.77 | 0.47 ± 0.18 | 0.64 ± 0.37 | migratory capability (PANC-1 cells [6]): remarkably decreased; migratory capability (Huh7 cells [7]): remarkably decreased; invasive capability (PANC-1 cells [8]): remarkably decreased; invasive capability (Huh7 cells [9]): remarkably decreased; IC50 (MDA-MB-231 cells; 48 h): 1000 nM; IC50 (H1975 cells): 7.7 µM; IC50 (PANC-1 cells [10]): 300 nM; IC50 (Huh7 cells [11]): 1300 nM; IC50 (HepG2 cells [12]): 1.8 µM; IC50 [13]: 0.3 to 19.1 µM |
